Reference: patent publication US20160238590A1, “COMPOSITIONS AND METHODS RELATED TO OAT SENSITIVITY” (IMMUSANT, INC., priority 2013, published 2016)
[ ]: non-standard residue; d: D form. pGlu = O=C1CC[C@@H](C(=O)O)N1

What was measured:
Assay type in all cases: cell-based, human
Patient 9 TCC-02 = test: IFN-γ ELISpot with T cell clone; conditions: TCC Patient 9 TCC-02, peptide 50 μg/mL
Experimental: (§1) Peripheral blood mononuclear cells (PBMC) were isolated from heparinized whole blood using Ficoll-Paque™ Plus density-gradient centrifugation (GE Healthcare). IFN-γ ELISpot (Mabtech) was set up as previously described^8.
(§2) Isolation of TCC from CD patients was carried out as previously described^8. Briefly, CFSE-labeled PBMC were incubated with antigen for 7 days in IMDM supplemented with 5% heat-inactivated pooled human serum (PHS), 2 mM GlutaMAX™, 100 μM MEM non-essential amino acids (both from Gibco, Invitrogen), and 50 μM 2-mercaptoethanol (Sigma). Proliferated cells were single-cell sorted into 96-well plates containing IL-2, IL-4, anti-CD3 mAb, irradiated feeder cells (allogeneic PBMC and JY-EBV). TCC were expanded and maintained in IL-2 and IL-4 and tested for specificity by ELISpot with irradiated HLA-matched PBMC as antigen-presenting cells. Expanded clones were tested for HLA-DQ restriction, TCR Vbeta usage, and with lysine scans to work out minimal epitopes. See Table 1 below for TCC and epitope information.

Patient 10 TCC-01 = test: IFN-γ ELISpot with T cell clone; conditions: TCC Patient 10 TCC-01, peptide 50 μg/mL
Experimental: as §1, §2

Patient 9 TCC-01 = test: IFN-γ ELISpot with T cell clone; conditions: TCC Patient 9 TCC-01, peptide 50 μg/mL
Experimental: as §1, §2

Patient 14 TCC-01 = test: IFN-γ ELISpot with T cell clone
Experimental: as §1, §2

Patient 6 TCC-01 = test: IFN-γ ELISpot with T cell clone
Experimental: as §1, §2

Patient 2 TCC-01 = test: IFN-γ ELISpot with T cell clone
Experimental: as §1, §2

Patient 8 TCC-01 = test: IFN-γ ELISpot with T cell clone; conditions: TCC Patient 8 TCC-01, peptide 25 μg/mL
Experimental: as §1, §2

Patient 2 TCC-02 = test: IFN-γ ELISpot with T cell clone
Experimental: as §1, §2

Patient 2 TCC-03 = test: IFN-γ ELISpot with T cell clone; conditions: TCC Patient 2 TCC-03, peptide 25 μg/mL
Experimental: as §1, §2

PBMC [1] = test: IFN-γ ELISpot on PBMC of CD patients on day 6 after 3-day oats challenge; conditions: after 3-day oats challenge
Excerpt: (§3) Australian Caucasian HLA-DQ2.5^+ and/or HLA-DQ8^+ CD subjects were recruited by advertisement in the Coeliac Society of Victoria newsletter and all had biopsy-proven CD conforming to ESPGHAN criteria. Patients had been on strict gluten free diet for at least 4 weeks prior to commencing grain challenge. Patients underwent 3-day grain challenge with oats, barley, or combined wheat, barley, and rye muffins, and 6 days after commencement, blood was collected. Day 0 responses were not observed in the selection of patients tested, as described previously^8.
(§4) Oats challenge consisted of 100 g dry weight daily of one of three commercial brands of oats: one not tested for wheat contamination (Uncle Toby's; Oats #1), and two shown by R5 ELISA to contain less than 20 ppm wheat gluten (Tilquhilie Pudding; Oats #2 and Freedom Food; Oats #3). Barley challenge consisted of pearl barley (Ward McKenzie) cooked into a risotto (150 g dry weight daily) and the wheat challenge consisted of four 50 g slices of wheat bread daily (Baker's Delight white loaf cut to toasting thickness). The combined wheat, barley, and rye challenge consisted of muffins baked with wheat flour (White Wings), barley flour (Four Leaf Milling), and rye flour (Four Leaf Milling; 22-25 g dry weight each daily). A symptom diary based on a […] Likert scale was completed by participants daily from baseline until day 6.
(§5) Two avenin peptide libraries were utilized for epitope screening. These were designed using avenin sequences from GenBank and a customized algorithm, as previously described^9. The initial library consisted of 199 screening-grade 20 mers including all possible 12 mers (Mimotopes). This library was screened with and without tTG pre-treatment. The second library consisted of additional avenin sequences that were synthesized with glutamate substitution at sites predicted to be deamidated by published algorithms^10, 11 removing the requirement for tTG treatment. This library contained 369 screening-grade 20 mers, including all possible 12 mers (Pepscan). The second round avenin library contained wild-type and deamidated versions of the most immunogenic sequences (25 high quality 16 mers from Mimotopes). High quality peptides containing previously described immunogenic sequences from wheat, barley, and rye were used to test for cross-reactivity^8 (Pepscan). High quality hordein and avenin peptides for TCC testing and biochemical studies were ordered from Pepscan, Mimotopes, or GL Biochem.
as §1

PBMC [2] = test: IFN-γ ELISpot on PBMC of CD patients after 3-day barley challenge; conditions: after barley challenge
Excerpt: as §3, §4, §5, §1

[3] = TCC Patient 2 TCC-02, peptide 25 μg/mL

Sequence	IFN-γ ELISpot response (raw SFU) (PBMC [1]; patient P1, peptide 1 μg/ml) [SFU]	IFN-γ ELISpot response (raw SFU) (PBMC [1]; patient P1, peptide 10 μg/ml) [SFU]	significant SFU as a percentage of maximal peptide SFU (PBMC [1]; patient P1, peptide 10 μg/ml)	IFN-γ ELISpot response (raw SFU) (PBMC [1]; patient P1, peptide 100 μg/ml) [SFU]	IFN-γ ELISpot response (raw SFU) (PBMC [1]; patient P2, peptide 1 μg/ml) [SFU]	IFN-γ ELISpot response (raw SFU) (PBMC [1]; patient P2, peptide 10 μg/ml) [SFU]	significant SFU as a percentage of maximal peptide SFU (PBMC [1]; patient P2, peptide 10 μg/ml)	IFN-γ ELISpot response (raw SFU) (PBMC [1]; patient P2, peptide 100 μg/ml) [SFU]	significant SFU as a percentage of maximal peptide SFU (PBMC [1]; patient P2, peptide 100 μg/ml)	IFN-γ ELISpot response (raw SFU) (PBMC [1]; patient P3, peptide 1 μg/ml) [SFU]	significant SFU as a percentage of maximal peptide SFU (PBMC [1]; patient P3, peptide 1 μg/ml)	IFN-γ ELISpot response (raw SFU) (PBMC [1]; patient P3, peptide 10 μg/ml) [SFU]	significant SFU as a percentage of maximal peptide SFU (PBMC [1]; patient P3, peptide 10 μg/ml)	IFN-γ ELISpot response (raw SFU) (PBMC [1]; patient P3, peptide 100 μg/ml) [SFU]	IFN-γ ELISpot response (raw SFU) (PBMC [1]; patient P11, peptide 1 μg/ml) [SFU]	IFN-γ ELISpot response (raw SFU) (PBMC [1]; patient P11, peptide 10 μg/ml) [SFU]	IFN-γ ELISpot response (raw SFU) (PBMC [1]; patient P11, peptide 100 μg/ml) [SFU]	IFN-γ ELISpot response (raw SFU) (PBMC [1]; patient P12, peptide 1 μg/ml) [SFU]	IFN-γ ELISpot response (raw SFU) (PBMC [1]; patient P12, peptide 10 μg/ml) [SFU]	IFN-γ ELISpot response (raw SFU) (PBMC [1]; patient P12, peptide 100 μg/ml) [SFU]	other results
QPFPQPEQPFPWQP ([pGlu]PFPQPEQPFPWQP-NH2; SMILES NC(=O)CC[C@H](NC(=O)[C@H](Cc1c[nH]c2ccccc12)NC(=O)[C@@H]1CCCN1C(=O)[C@H](Cc1ccccc1)NC(=O)[C@@H]1CCCN1C(=O)[C@H](CCC(N)=O)NC(=O)[C@H](CCC(=O)O)NC(=O)[C@@H]1CCCN1C(=O)[C@H](CCC(N)=O)NC(=O)[C@@H]1CCCN1C(=O)[C@H](Cc1ccccc1)NC(=O)[C@@H]1CCCN1C(=O)[C@@H]1CCC(=O)N1)C(=O)N1CCC[C@H]1C(N)=O) [wheat gliadin peptide containing DQ2.5-glia-ω1 and DQ2.5-glia-ω2, reference compound]	–	–	–	–	–	–	–	–	–	–	–	–	–	–	–	–	–	–	–	–	IFN-γ ELISpot response (raw SFU) (Patient 9 TCC-02): 0 SFU; IFN-γ ELISpot response (raw SFU) (Patient 10 TCC-01): 205 SFU; significant SFU as a percentage of maximal peptide SFU (Patient 10 TCC-01): *** (***: >70%); IFN-γ ELISpot response (raw SFU) (Patient 9 TCC-01): 1 SFU; IFN-γ ELISpot response (raw SFU) (Patient 14 TCC-01; TCC Patient 14 TCC-01, peptide 50 μg/mL): 20 SFU; IFN-γ ELISpot response (raw SFU) (Patient 6 TCC-01; TCC Patient 6 TCC-01, peptide 50 μg/mL): 1 SFU; IFN-γ ELISpot response (raw SFU) (Patient 2 TCC-01; TCC Patient 2 TCC-01, peptide 50 μg/mL): 2 SFU
QYQPYPEQEEPFVQQQ	8	15	** (**: 40-70%)	5	7	12	* (*: 20-40%)	20	* (*: 20-40%)	20	* (*: 20-40%)	31	** (**: 40-70%)	2	2	0	0	4	3	2	IFN-γ ELISpot response (SFU) (Patient 8 TCC-01): 0 SFU; rank of TCC response among homologous peptides (Patient 2 TCC-02; Patient 2 TCC-02 (FIG. 2)): greatest response; IFN-γ ELISpot response (SFU) (Patient 2 TCC-02; [3]): 284 SFU; significant SFU as a percentage of maximal peptide SFU (Patient 2 TCC-02; [3]): *** (***: >70%); IFN-γ ELISpot response (SFU) (Patient 6 TCC-01; TCC Patient 6 TCC-01, peptide 25 μg/mL): 1 SFU; IFN-γ ELISpot response (SFU) (Patient 2 TCC-03): 0 SFU; IFN-γ ELISpot response (SFU) (Patient 2 TCC-01; TCC Patient 2 TCC-01, peptide 25 μg/mL): 2 SFU; IFN-γ ELISpot response (raw SFU) (PBMC [1]; patient P13, peptide 50 μg/ml): 9 SFU
QYQPYPEQEQPILQQQ [partially deamidated avenin peptide containing DQ2.5-ave-1c]	11	33	*** (***: >70%)	11	6	34	** (**: 40-70%)	38	*** (***: >70%)	19	* (*: 20-40%)	26	** (**: 40-70%)	18	3	41	50	1	39	31	IFN-γ ELISpot response (raw SFU) (Patient 14 TCC-01; TCC Patient 14 TCC-01 (Table 5), mean no antigen 11.3, high background, SFU >25 considered as positive responses): 21 SFU; IFN-γ ELISpot response (raw SFU) (Patient 6 TCC-01; TCC Patient 6 TCC-01 (Table 5), mean no antigen 2): 5 SFU; IFN-γ ELISpot response (raw SFU) (Patient 2 TCC-01; TCC Patient 2 TCC-01 (Table 5), mean no antigen 1.1): 288 SFU; IFN-γ ELISpot response (raw SFU) (PBMC [2]; Patient 1, peptide 50 μg/ml): 58 SFU; significant SFU as a percentage of maximal peptide SFU (PBMC [2]; Patient 1, peptide 50 μg/ml): ^^ (^^: 10-20%); IFN-γ ELISpot response (raw SFU) (PBMC [2]; Patient 2, peptide 50 μg/ml): 220 SFU; significant SFU as a percentage of maximal peptide SFU (PBMC [2]; Patient 2, peptide 50 μg/ml): *** (***: >70%); IFN-γ ELISpot response (raw SFU) (PBMC [2]; Patient 3, peptide 50 μg/ml): 34 SFU; significant SFU as a percentage of maximal peptide SFU (PBMC [2]; Patient 3, peptide 50 μg/ml): * (*: 20-40%); significant SFU as a percentage of maximal peptide SFU (PBMC [1]; patient P1, peptide 1 μg/ml): * (*: 20-40%); significant SFU as a percentage of maximal peptide SFU (PBMC [1]; patient P1, peptide 100 μg/ml): * (*: 20-40%); significant SFU as a percentage of maximal peptide SFU (PBMC [1]; patient P3, peptide 100 μg/ml): * (*: 20-40%); significant SFU as a percentage of maximal peptide SFU (PBMC [1]; patient P11, peptide 10 μg/ml): *** (***: >70%); significant SFU as a percentage of maximal peptide SFU (PBMC [1]; patient P11, peptide 100 μg/ml): *** (***: >70%); significant SFU as a percentage of maximal peptide SFU (PBMC [1]; patient P12, peptide 10 μg/ml): ** (**: 40-70%); significant SFU as a percentage of maximal peptide SFU (PBMC [1]; patient P12, peptide 100 μg/ml): ** (**: 40-70%); IFN-γ ELISpot response (raw SFU) (PBMC [1]; patient P13, peptide 50 μg/ml): 4 SFU
